Tests used:
[1] = system: HEK293T cells carrying the ATF4 luciferase reporter; experiment: ATF4-Luc assay (in vitro model of vanishing white matter disease); assay type: cell-based, human; conditions: Homo sapiens, HEK-293T; HEK293T cells with ATF4 5'-UTR firefly luciferase reporter; 1 μg/mL tunicamycin; 7 hours; One Glo luminescence
How it was run: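 Compound at 200 nM and tunicamycin at 1 μg/mL were given together for 7 h to HEK293T cells stably transduced with an ATF4 5′-UTR-driven firefly luciferase reporter. Read-out by luminescence, reported as EC50.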

Compound	EC50 [1] [nM]	melting point [°C]
O=C(COc1ccc(Cl)c(F)c1)N[C@H]1CC[C@H](N2CCN(c3ccc(C(F)(F)F)cn3)C2=O)CC1 [Compound 132, 2-(4-chloro-3-fluorophenoxy)-N-[(1r,4r)-4-{2-oxo-3-[5-(trifluoromethyl)pyridin-2-yl]imidazolidin-1-yl}cyclohexyl]acetamide]	< 50	232
O=C(COc1ccc(Cl)c(F)c1)NC12CC(N3Cc4cc5ccccc5cc4C3=O)(C1)C2 [Compound 168, 2-(4-chloro-3-fluorophenoxy)-N-[3-(1-oxo-1,3-dihydro-2H-benzo[f]isoindol-2-yl)bicyclo[1.1.1]pentan-1-yl]acetamide]	250 to 1000	
O=C(COc1ccc(Cl)c(F)c1)NC12CC(N3CC(c4ccc(Cl)cc4)COC3=O)(C1)C2 (stereo not shown) [Compound 169, 2-(4-chloro-3-fluorophenoxy)-N-{3-[5-(4-chlorophenyl)-2-oxo-1,3-oxazinan-3-yl]bicyclo[1.1.1]pentan-1-yl}acetamide]	250 to 1000	
